This note sets out measurements from the OligoGym collection.

Bases are written 5' to 3'; sugars and linkages follow in the same order, as letters with counts (s phosphorothioate, o phosphodiester; PS: all linkages phosphorothioate). C may stand for cytosine or 5-methylcytosine; the collection does not tell. l = locked nucleic acid (LNA); d = 2'-deoxy (DNA)

The target of the series is HIF1A. The series can be described thus: HeLa, 100 nM transfected, 24 h, mean of 3. The note with it: ASO.
“GTTACTGCCTTCTTAC (sugars ldllldddddddlldl, PS)” gave a caspase activation (% of PBS control) of 470.
The figure for “GTTACTGCCTTCTTAC (sugars ldlllddddddldddl, PS)” is 453; for “GTTACTGCCTTCTTAC (sugars ldlllddddddlddll, PS)” it is 425.
On to “GTTACTGCCTTCTTAC (sugars ldlllddddddldldl, PS)”, for which the caspase activation (% of PBS control) came out at 438.
The value for “GTTACTGCCTTCTTAC (sugars ldlllddddddldlll, PS)” was 427; that for “GTTACTGCCTTCTTAC (sugars ldlllddddddllddl, PS)” was 499; that for “GTTACTGCCTTCTTAC (sugars ldlllddddddlldll, PS)” was 410.
The figure for “GTTACTGCCTTCTTAC (sugars ldlllddddddllldl, PS)” is 639; for “GTTACTGCCTTCTTAC (sugars lldddddddddldldl, PS)” it is 144.
The value for “GTTACTGCCTTCTTAC (sugars llddlddddddddldl, PS)” was 222; that for “GTTACTGCCTTCTTAC (sugars llddldddddddlddl, PS)” was 197.
The sequence “GTTACTGCCTTCTTAC (sugars llddldddddddldll, PS)” gave a caspase activation (% of PBS control) of 218.
The value for “GTTACTGCCTTCTTAC (sugars llddldddddddlldl, PS)” was 330.
The value for “GTTACTGCCTTCTTAC (sugars llddlddddddldddl, PS)” was 191; that for “GTTACTGCCTTCTTAC (sugars llddlddddddlddll, PS)” was 193.
The value for “GTTACTGCCTTCTTAC (sugars llddlddddddldldl, PS)” was 235; that for “GTTACTGCCTTCTTAC (sugars llddlddddddldlll, PS)” was 220.
On to “GTTACTGCCTTCTTAC (sugars llddlddddddllddl, PS)”, for which the caspase activation (% of PBS control) turned out to be 231.
The value for “GTTACTGCCTTCTTAC (sugars llddlddddddlldll, PS)” was 208; that for “GTTACTGCCTTCTTAC (sugars llddlddddddllldl, PS)” was 373; that for “GTTACTGCCTTCTTAC (sugars lldldddddddddldl, PS)” was 138.
With “GTTACTGCCTTCTTAC (sugars lldlddddddddlddl, PS)”, the caspase activation (% of PBS control) was determined as 135.
The value for “GTTACTGCCTTCTTAC (sugars lldlddddddddldll, PS)” was 139; that for “GTTACTGCCTTCTTAC (sugars lldlddddddddlldl, PS)” was 187; that for “GTTACTGCCTTCTTAC (sugars lldldddddddldddl, PS)” was 155.
“GTTACTGCCTTCTTAC (sugars lldldddddddlddll, PS)” yielded a caspase activation (% of PBS control) of 161.
The value for “GTTACTGCCTTCTTAC (sugars lldldddddddldldl, PS)” was 193; that for “GTTACTGCCTTCTTAC (sugars lldldddddddldlll, PS)” was 170.
“GTTACTGCCTTCTTAC (sugars lldldddddddllddl, PS)”: the caspase activation (% of PBS control) came to 196.
In turn, “GTTACTGCCTTCTTAC (sugars lldldddddddlldll, PS)” showed a caspase activation (% of PBS control) of 163.
The figure for “GTTACTGCCTTCTTAC (sugars lldldddddddllldl, PS)” is 307; for “GTTACTGCCTTCTTAC (sugars lldllddddddddldl, PS)” it is 291; for “GTTACTGCCTTCTTAC (sugars lldlldddddddlddl, PS)” it is 278.
Sequence “GTTACTGCCTTCTTAC (sugars lldlldddddddldll, PS)” registered a caspase activation (% of PBS control) of 293.
The figure for “GTTACTGCCTTCTTAC (sugars lldlldddddddlldl, PS)” is 363.
The value for “GTTACTGCCTTCTTAC (sugars lldllddddddldddl, PS)” was 260; that for “GTTACTGCCTTCTTAC (sugars lldllddddddlddll, PS)” was 261; that for “GTTACTGCCTTCTTAC (sugars lldllddddddldldl, PS)” was 294.
The value for “GTTACTGCCTTCTTAC (sugars lldllddddddldlll, PS)” was 278; that for “GTTACTGCCTTCTTAC (sugars lldllddddddllddl, PS)” was 356; that for “GTTACTGCCTTCTTAC (sugars lldllddddddlldll, PS)” was 289.
As for “GTTACTGCCTTCTTAC (sugars lldllddddddllldl, PS)”, the caspase activation (% of PBS control) was found to be 506.
The value for “GTTACTGCCTTCTTAC (sugars lllddddddddldldl, PS)” was 233; that for “GTTACTGCCTTCTTAC (sugars llldlddddddddldl, PS)” was 271; that for “GTTACTGCCTTCTTAC (sugars llldldddddddlddl, PS)” was 277.
The value for “GTTACTGCCTTCTTAC (sugars llldldddddddldll, PS)” was 274; that for “GTTACTGCCTTCTTAC (sugars llldldddddddlldl, PS)” was 341; that for “GTTACTGCCTTCTTAC (sugars llldlddddddldddl, PS)” was 272.
For “GTTACTGCCTTCTTAC (sugars llldlddddddlddll, PS)”, the caspase activation (% of PBS control) is 283.
The value for “GTTACTGCCTTCTTAC (sugars llldlddddddldldl, PS)” was 316.
The value for “GTTACTGCCTTCTTAC (sugars llldlddddddldlll, PS)” was 273.
The figure for “GTTACTGCCTTCTTAC (sugars llldlddddddllddl, PS)” is 308; for “GTTACTGCCTTCTTAC (sugars llldlddddddlldll, PS)” it is 307.
As for “GTTACTGCCTTCTTAC (sugars llldlddddddllldl, PS)”, the caspase activation (% of PBS control) was 485.
Take “GTTACTGCCTTCTTAC (sugars lllldddddddldldl, PS)”: the caspase activation (% of PBS control) amounted to 281.
The value for “GTTACTGCCTTCTTAC (sugars lllllddddddldldl, PS)” was 467; that for “TACTGCCTTCTTA (sugars l1 d1 l1 d7 l3, PS)” was 494.
The figure for “TACTGCCTTCTTA (sugars l1 d1 l1 d8 l2, PS)” is 277; for “TACTGCCTTCTTA (sugars l1 d1 l1 d9 l1, PS)” it is 193; for “TACTGCCTTCTTA (sugars l1 d1 l2 d6 l3, PS)” it is 585.
The value for “TACTGCCTTCTTA (sugars l1 d1 l2 d7 l2, PS)” was 448; that for “TACTGCCTTCTTA (sugars l1 d1 l2 d8 l1, PS)” was 270.
“TACTGCCTTCTTA (sugars l1 d2 l1 d6 l3, PS)” showed a caspase activation (% of PBS control) of 246.
Consider “TACTGCCTTCTTA (sugars l1 d2 l1 d7 l2, PS)”, for which the caspase activation (% of PBS control) worked out at 156.
The figure for “TACTGCCTTCTTA (sugars l1 d2 l1 d8 l1, PS)” is 118; for “TACTGCCTTCTTA (sugars l1 d9 l1 d1 l1, PS)” it is 142; for TACTGCCTTCTTA (sugars l1 d9 l3, PS) it is 158.
TACTGCCTTCTTA (sugars l1 d10 l2, PS) showed a caspase activation (% of PBS control) of 130.
The value for TACTGCCTTCTTA (sugars l1 d11 l1, PS) was 112.
The figure for “TACTGCCTTCTTA (sugars l2 d1 l1 d6 l3, PS)” is 427; for “TACTGCCTTCTTA (sugars l2 d1 l1 d7 l2, PS)” it is 295.
The figure for “TACTGCCTTCTTA (sugars l2 d1 l1 d8 l1, PS)” is 222.
“TACTGCCTTCTTA (sugars l2 d8 l1 d1 l1, PS)” showed a caspase activation (% of PBS control) of 223.
TACTGCCTTCTTA (sugars l2 d8 l3, PS) registered a caspase activation (% of PBS control) of 363.
As to TACTGCCTTCTTA (sugars l2 d9 l2, PS), the caspase activation (% of PBS control) was 184.
The value for TACTGCCTTCTTA (sugars l2 d10 l1, PS) was 152; that for “TACTGCCTTCTTA (sugars l3 d7 l1 d1 l1, PS)” was 368; that for TACTGCCTTCTTA (sugars l3 d7 l3, PS) was 489.
The figure for TACTGCCTTCTTA (sugars l3 d8 l2, PS) is 317; for TACTGCCTTCTTA (sugars l3 d9 l1, PS) it is 286; for “TACTGCCTTCTTA (sugars l4 d6 l1 d1 l1, PS)” it is 508.
As to TACTGCCTTCTTA (sugars l4 d6 l3, PS), the caspase activation (% of PBS control) came out at 404.
The value for TACTGCCTTCTTA (sugars l4 d7 l2, PS) was 594.
As to TACTGCCTTCTTA (sugars l4 d8 l1, PS), the caspase activation (% of PBS control) worked out at 435.
“TACTGCCTTCTTA (sugars lddlddddddldl, PS)” displayed a caspase activation (% of PBS control) of 133.
“TACTGCCTTCTTA (sugars ldldddddddldl, PS)” returned a caspase activation (% of PBS control) of 237.
The figure for “TACTGCCTTCTTA (sugars ldllddddddldl, PS)” is 317; for “TACTGCCTTCTTA (sugars lldlddddddldl, PS)” it is 293.
